System: Leukemia L 1210
Test: Survival (MST, ILS, T/C%) of mice inoculated i.p. with Leukemia L 1210, compound given orally
Assay type: in vivo
Set-up: Increase in Life Span (ILS): unit not given here
Details: for Survivors: of 10 mice
Experimental: The chemotherapeutic activity of the compound ethyl-D-glucosamyl-L-aspartoyl(β-ethoxy)-D-glucosamyl)m-di(2-chloroethylamino)-L-phenylalanyl-p-fluoro-L-phenylalanine was evaluated by conducting trials on mice injected with cells of Leukemia 1210 according to the procedure established in Cancer Chemotherapy Reports 1972, Vol. 3, No. 2: Protocols for Screening Chemical Agents and Natural Products Against Animal Tumors and other Biological Systems (Third Edition, National Cancer Institute, Bethesda, Maryland. The experimental model employed for the evaluation is:
Determination of the MST (Mean Survival Time) of BDGI mice inoculated intraperitoneally with 10^5 cells of lymphoid Leukenia L 1210 deriving from regular implants in DBA2 mice. The MST was determined both on the controls and on the animals treated, and thereafter an evaluation was made of the ILS (Increased Life Span) according to Cancer Chemotherapy Reports 1972, Vol. 3, No. 2 (Protocols for Screening Chemical Agents and Natural Products Against Animal Tumors and other Biological Systems--Third Edition, National Cancer Institute, Bethesda, Maryland). In this case, the compounds were tested only after oral administration starting from the 3rd day after implant of the tumor and continuing on the 17th, 25th and 35th day. On the 52nd day, any surviving animals were sacrificed and the experiment discontinued and evaluated.
The formula for the calculation of mean survival time is: [formula] wherein Day A=Day on which deaths are no longer considered due to drug toxicity - For Leukemia L 1210 day A=day 6
Day B=This day cannot be considered here because all control animals died within the 11th day and survivors were not observed.
S=The total of survivors from 6th day onwards
S(A-1)=Number of survivors at the end of day 5 (A-1)=S5
The ILS and the ratio T/C% are calcuated as follows: […]

[1] = Table, oral 25, 15, 10, 5 mg/Kg on days 3, 17, 25, 35, L 1210 mice

Ethyl-D-glucosamyl-L-aspartoyl(β-ethoxy)-D-glucosamyl-m-di-(2-chloroethyl)amino-L-phenylalanyl-p-fluoro-phenylalanine
I.L.S. [1]: 186.4 | M.S.T. [1]: 32.7 | T/C % [1]: 311.4% | Survivors (day 3 from inoculum, oral 25 mg/Kg given this day): 10 | Survivors (day 4 from inoculum): 10 | Survivors (day 5 from inoculum): 10 | Survivors (day 6 from inoculum): 10 | Survivors (day 7 from inoculum): 10 | Survivors (day 8 from inoculum): 10 | Survivors (day 9 from inoculum): 10 | Survivors (day 10 from inoculum): 10 | Survivors (day 11 from inoculum): 10 | Survivors (day 12 from inoculum): 10 | Survivors (day 13 from inoculum): 10 | Survivors (day 14 from inoculum): 10 | Survivors (day 15 from inoculum): 10 | Survivors (day 16 from inoculum): 10 | Survivors (day 17 from inoculum, oral 15 mg/Kg given this day): 10 | Survivors (day 18 from inoculum): 10 | Survivors (day 19 from inoculum): 8 | Survivors (day 20 from inoculum): 8 | Survivors (day 21 from inoculum): 6 | Survivors (day 22 from inoculum): 6 | Survivors (day 23 from inoculum): 6 | Survivors (day 24 from inoculum): 6 | Survivors (day 25 from inoculum, oral 10 mg/Kg given this day): 6 | Survivors (day 26 from inoculum): 6 | Survivors (day 27 from inoculum): 6 | Survivors (day 28 from inoculum): 6 | Survivors (day 29 from inoculum): 6 | Survivors (day 30 from inoculum): 5 | Survivors (day 31 from inoculum): 5 | Survivors (day 32 from inoculum): 5 | Survivors (day 33 from inoculum): 5 | Survivors (day 34 from inoculum): 4 | Survivors (day 35 from inoculum, oral 5 mg/Kg given this day): 4 | Survivors (day 36 from inoculum): 4 | Survivors (day 37 from inoculum): 4 | Survivors (day 38 from inoculum): 4 | Survivors (day 39 from inoculum): 4 | Survivors (day 40 from inoculum): 3 | Survivors (day 41 from inoculum): 3 | Survivors (day 42 from inoculum): 2 | Survivors (day 43 from inoculum): 2 | Survivors (day 44 from inoculum): 2 | Survivors (day 45 from inoculum): 2 | Survivors (day 46 from inoculum): 2 | Survivors (day 47 from inoculum): 2 | Survivors (day 48 from inoculum): 2 | Survivors (day 49 from inoculum): 1 | Survivors (day 50 from inoculum): 1 | Survivors (day 51 from inoculum): 1 | Survivors (day 52 from inoculum): 0 | Mean Survival Time (MST) (ten mice, 10^5 L 1210 cells i.p., oral 25, 15, 10, 5 mg/kg on days 3, 17, 25, 35): 32.7 days | Increase in Life Span (ILS) (ten mice, 10^5 L 1210 cells i.p., oral 25, 15, 10, 5 mg/kg on days 3, 17, 25, 35, calculated as 311.4-125): 186.4 | T/C% (MST of the treated group divided by the MST of the control group) (ten mice, 10^5 L 1210 cells i.p., oral 25, 15, 10, 5 mg/kg on days 3, 17, 25, 35, control MST 10.5): 311.4%
